{"source": "paper PMC7046841", "about": "“Triterpenoids from Ainsliaea latifolia and Their Cyclooxyenase-2 (COX-2) Inhibitory Activities” (Natural Products and Bioprospecting, 2019)", "data": [{"target": "T1, human recombinant COX-2 (Homo sapiens, UniProt P35354)", "T1 construct": "purchased Cayman", "T1 sequence (P35354 18-604)": "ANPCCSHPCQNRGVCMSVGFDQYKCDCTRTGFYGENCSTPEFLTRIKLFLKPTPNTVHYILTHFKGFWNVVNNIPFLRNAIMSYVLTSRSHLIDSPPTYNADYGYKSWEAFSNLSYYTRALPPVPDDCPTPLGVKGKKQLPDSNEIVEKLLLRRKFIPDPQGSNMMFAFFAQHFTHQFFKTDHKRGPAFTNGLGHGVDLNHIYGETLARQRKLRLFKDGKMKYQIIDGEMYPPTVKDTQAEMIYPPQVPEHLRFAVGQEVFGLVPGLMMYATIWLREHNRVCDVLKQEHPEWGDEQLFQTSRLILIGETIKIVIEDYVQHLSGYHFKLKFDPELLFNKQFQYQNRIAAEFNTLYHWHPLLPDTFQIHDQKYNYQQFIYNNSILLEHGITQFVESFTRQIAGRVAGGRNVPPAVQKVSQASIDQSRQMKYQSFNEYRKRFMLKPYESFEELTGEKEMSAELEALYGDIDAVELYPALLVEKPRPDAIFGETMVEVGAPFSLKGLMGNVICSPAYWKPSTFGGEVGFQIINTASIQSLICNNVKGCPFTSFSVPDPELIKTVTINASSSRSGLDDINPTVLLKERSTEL", "assay": "Colorimetric COX Inhibitor Screening Assay (Cayman), COX-2 inhibitory effect", "type": "biochemical", "description": "Cayman’s Colorimetric COX Inhibitor Screening Assay provides a convenient method for human recombinant COX-2 to screen isozyme-specific inhibitors. The assay measures the peroxidase component of COXs. The peroxidase activity is assayed colorimetrically by monitoring the appearance of oxidized N′,N,N,N′-tetramethyl-p-phenylenediamine (TMPD) at 590 nm. The COX-2 assay consisted of a 200 µL reaction mixture containing 150 µL assay buffer, 10 µL Heme, 10 µL COX-2, 20 µL Colorimetric Substrate, and 10 µL test solution (1, 5, 10, 20, 80, 100 µmol·L^−1). The reactions were initiated by quickly adding 10 µL Arachidonic Acid, then incubating for 2 min at room temperature.", "units": {"IC50": "µM"}, "values": [{"compound": "CC(C=CC(O)C(C)(C)O)C1CCC2(C)C3CC=C4C(CCC(O)C4(C)C)C3(C)CCC12C", "note": "(stereo not drawn) [Compound 1, cucurbita-5, 22-diene-3β, 24S, 25-triol]", "IC50": "> 100"}, {"compound": "C[C@H](C/C=C/C(C)(C)O)[C@H]1CC[C@@]2(C)[C@@H]3CC=C4[C@@H](CC[C@H](O)C4(C)C)[C@]3(C)CC[C@]12C", "note": "[Compound 9, cucurbita-5,23-diene-3β,25-diol]", "IC50": "> 100"}, {"compound": "CC(CC=CC(C)(C)O)C1CCC2(C)C3CCC4(C)C(C)C(=O)CCC4C3(C)CCC12C", "note": "(stereo not drawn) [Compound 7, 18R-D:A-friedoeuph-20-ene-22-ol-3-one]", "IC50": "> 100"}, {"compound": "C[C@H](CCCO)[C@H]1CC[C@@]2(C)[C@@H]3CC=C4[C@@H](CC[C@H](O)C4(C)C)[C@]3(C)CC[C@]12C", "note": "[Compound 4, 25,26,27-trinorcucurbita-5-ene-3β,24-diol]", "IC50": "3.98 ± 0.32"}, {"compound": "C[C@H](C/C=C/C(C)(C)O)[C@H]1CC[C@@]2(C)[C@@H]3C[C@H]4O[C@@]45[C@@H](CC[C@H](O)C5(C)C)[C@]3(C)CC[C@]12C", "note": "[Compound 3, cucurbita-5β,6β-epoxy-23-ene-3β, 25-diol]", "IC50": "> 100"}, {"compound": "C=C(C)[C@@H](O)CC[C@@H](C)[C@@H]1CC[C@]2(C)[C@H]3CC[C@@]4(C)[C@@H](CCC(=O)[C@@H]4C)[C@]3(C)CC[C@@]12C", "note": "[Compound 8]", "IC50": "> 100"}, {"compound": "C[C@H](CCO)[C@H]1CC[C@@]2(C)[C@@H]3CC=C4[C@@H](CC[C@H](O)C4(C)C)[C@]3(C)CC[C@]12C", "note": "[Compound 6, 24,25,26,27-tetranorcucurbita-5-ene-3β,23-diol]", "IC50": "31 ± 2.64"}, {"compound": "C[C@H](CCC(=O)O)[C@H]1CC[C@@]2(C)[C@@H]3CC=C4[C@@H](CC[C@H](O)C4(C)C)[C@]3(C)CC[C@]12C", "note": "[Compound 5, 25,26,27-trinorcucurbita-5-ene-3β-ol-24-acid]", "IC50": "19.5 ± 1.87"}, {"compound": "C[C@H](CC[C@H](O)C(C)(C)O)[C@H]1CC[C@@]2(C)[C@@H]3CC=C4[C@@H](CC[C@H](O)C4(C)C)[C@]3(C)CC[C@]12C", "note": "[Compound 2, cucurbita-5-ene-3β,24S,25-triol]", "IC50": "18.9 ± 1.65"}]}]}
